In ChEMBL document CHEMBL1133617, “Effect of C9-methyl substitution and C8-C9 conformational restriction on antifolate and antitumor activity of classical 5-substituted 2,4-diaminofuro[2,3-d]pyrimidines” (J Med Chem, 2000):

Key:
[1] = tested on: A253 cell line; experiment: Growth inhibition of human squamous cell carcinoma A253 cells during continuous Exposure ([…]); assay type: functional, cell-based
[2] = tested on: CCRF-CEM; experiment: Growth inhibition of CCRF-CEM human leukemia cells.; assay type: functional, cell-based
[3] = molecular target: Dihydrofolate reductase (Lactobacillus casei, UniProt P00381); experiment: Inhibitory concentration against Lactobacillus casei Dihydrofolate reductase; design: species or system Lacticaseibacillus casei
[4] = molecular target: T1, Bifunctional dihydrofolate reductase-thymidylate synthase (Toxoplasma gondii, UniProt Q07422); experiment: Inhibitory concentration against Toxoplasma gondii Dihydrofolate reductase
T1 sequence (Q07422 whole entry): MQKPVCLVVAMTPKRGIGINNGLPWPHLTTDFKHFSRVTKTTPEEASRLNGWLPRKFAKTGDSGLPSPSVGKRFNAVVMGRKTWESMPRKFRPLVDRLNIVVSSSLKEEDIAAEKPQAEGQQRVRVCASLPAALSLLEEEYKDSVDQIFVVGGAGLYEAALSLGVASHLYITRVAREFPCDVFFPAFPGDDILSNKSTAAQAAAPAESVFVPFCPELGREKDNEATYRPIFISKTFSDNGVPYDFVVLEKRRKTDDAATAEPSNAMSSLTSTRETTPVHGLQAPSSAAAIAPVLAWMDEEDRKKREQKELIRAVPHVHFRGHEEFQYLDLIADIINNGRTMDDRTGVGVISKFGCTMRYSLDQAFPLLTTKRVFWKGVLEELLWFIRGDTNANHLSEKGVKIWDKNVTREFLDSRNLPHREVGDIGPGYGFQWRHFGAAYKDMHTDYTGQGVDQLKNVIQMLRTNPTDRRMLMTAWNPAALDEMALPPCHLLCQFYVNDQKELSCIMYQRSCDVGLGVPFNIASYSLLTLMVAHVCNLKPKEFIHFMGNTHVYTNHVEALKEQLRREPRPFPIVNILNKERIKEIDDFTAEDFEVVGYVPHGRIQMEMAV

[5] = tested on: FaDu; experiment: protection of FaDu cells from the growth inhibitory effects by 50 uM of hypoxanthine (HX); assay type: functional, Homo sapiens; design: scale not given: the % may be the effect or the level left
[6] = tested on: FaDu; experiment: protection of FaDu cells from the growth inhibitory effects by the combination of 50 uM of hypoxanthine (HX) and 40 uM of thymidine (TdR).; assay type: functional, Homo sapiens; design: scale not given: the % may be the effect or the level left
[7] = tested on: FaDu; experiment: protection of FaDu cells from the growth inhibitory effects of the compound.; assay type: functional, Homo sapiens; design: scale not given: the % may be the effect or the level left
[8] = tested on: FaDu; experiment: protection of FaDu cells from the growth inhibitory effects by 40 uM of thymidine (TdR).; assay type: functional, Homo sapiens; design: scale not given: the % may be the effect or the level left
[9] = tested on: FaDu; experiment: Growth inhibition of human squamous cell carcinoma FaDu cells during continuous Exposure ([…]); assay type: functional, cell-based
[10] = Growth inhibition of MTX-resistant R2(Bos) sublines.; assay type: functional, Homo sapiens
[11] = Growth inhibition of MTX-resistant R30dm sublines.; assay type: functional, Homo sapiens
[12] = molecular target: Thymidylate synthase (Escherichia coli, UniProt C3SWJ7); experiment: Inhibitory concentration against Escherichia coli Thymidylate synthase (TS).
[13] = molecular target: T2, Thymidylate synthase (Lactobacillus casei, UniProt P00469); experiment: Inhibitory concentration against Lactobacillus casei Thymidylate synthase (TS).; design: species or system Lacticaseibacillus casei
T2 sequence (P00469 whole entry): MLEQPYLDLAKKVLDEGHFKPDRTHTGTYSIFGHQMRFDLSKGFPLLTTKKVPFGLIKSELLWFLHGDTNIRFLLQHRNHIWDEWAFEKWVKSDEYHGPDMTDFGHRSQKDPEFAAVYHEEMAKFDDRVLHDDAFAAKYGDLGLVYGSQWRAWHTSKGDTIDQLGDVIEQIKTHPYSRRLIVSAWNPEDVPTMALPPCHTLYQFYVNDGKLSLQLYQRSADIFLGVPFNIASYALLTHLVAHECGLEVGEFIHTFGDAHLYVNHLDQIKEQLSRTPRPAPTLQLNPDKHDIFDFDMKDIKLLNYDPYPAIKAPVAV

[14] = molecular target: Thymidylate synthase (Rattus norvegicus, UniProt P45352); experiment: Inhibitory concentration against rat Thymidylate synthase (TS)
[15] = molecular target: Thymidylate synthase (Homo sapiens, UniProt P04818); experiment: Inhibitory concentration against recombinant human (rh) Thymidylate synthase (TS)
[16] = Growth inhibition of MTX-resistant R1 sublines.; assay type: functional, Homo sapiens
[17] = molecular target: T3, Dihydrofolate reductase (Escherichia coli, UniProt P0ABQ4)
T3 sequence (P0ABQ4 whole entry): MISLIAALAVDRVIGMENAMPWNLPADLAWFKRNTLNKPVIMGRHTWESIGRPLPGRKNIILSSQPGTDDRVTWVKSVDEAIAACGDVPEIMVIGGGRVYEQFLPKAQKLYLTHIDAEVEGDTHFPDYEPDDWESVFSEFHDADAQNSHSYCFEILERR
Description: Inhibitory concentration against Escherichia coli Dihydrofolate reductase

[18] = ratio of vmax to Km
[19] = molecular target: T4, Dihydrofolate reductase (Homo sapiens, UniProt P00374)
T4 sequence (P00374 whole entry): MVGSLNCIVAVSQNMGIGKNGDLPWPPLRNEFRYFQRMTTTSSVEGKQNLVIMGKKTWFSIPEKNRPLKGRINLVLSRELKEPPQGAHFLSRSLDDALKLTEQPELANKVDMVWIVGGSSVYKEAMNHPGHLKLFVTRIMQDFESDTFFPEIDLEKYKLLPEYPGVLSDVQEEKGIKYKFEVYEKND
Description: Inhibitory concentration against recombinant human (rh) Dihydrofolate reductase

[20] = molecular target: T4, Dihydrofolate reductase; experiment: Inhibitory activity against Dihydrofolate reductase
[21] = tested on: FaDu; experiment: protection of FaDu cells from the growth inhibitory effects by combination of 50 uM of thymidine (TdR).; assay type: functional, Homo sapiens; design: scale not given: the % may be the effect or the level left
[22] = substrate: C/C(=C/c1coc2nc(N)nc(N)c12)c1ccc(C(=O)N[C@@H](CCC(=O)O)C(=O)O)cc1.C/C(=C\c1coc2nc(N)nc(N)c12)c1ccc(C(=O)N[C@@H](CCC(=O)O)C(=O)O)cc1; experiment: (§1) Activity as substrate for recombinant human Folyl-polyglutamate synthase (rhFPGS)
[23] = substrate: C/C(=C\c1coc2nc(N)nc(N)c12)c1ccc(C(=O)N[C@@H](CCC(=O)O)C(=O)O)cc1; experiment: as §1
[24] = substrate: CC(Cc1coc2nc(N)nc(N)c12)c1ccc(C(=O)N[C@@H](CCC(=O)O)C(=O)O)cc1; experiment: as §1
[25] = substrate: Nc1nc(N)c2nc(CNc3ccc(C(=O)N[C@@H](CCC(=O)O)C(=O)O)cc3)cnc2n1; experiment: as §1
[26] = substrate: C/C(=C/c1coc2nc(N)nc(N)c12)c1ccc(C(=O)N[C@@H](CCC(=O)O)C(=O)O)cc1.C/C(=C\c1coc2nc(N)nc(N)c12)c1ccc(C(=O)N[C@@H](CCC(=O)O)C(=O)O)cc1; experiment: (§2) Activity as substrate for recombinant human Folyl-polyglutamate synthase (rhFPGS) relative to aminopterin.
[27] = substrate: C/C(=C\c1coc2nc(N)nc(N)c12)c1ccc(C(=O)N[C@@H](CCC(=O)O)C(=O)O)cc1; experiment: as §2
[28] = substrate: CC(Cc1coc2nc(N)nc(N)c12)c1ccc(C(=O)N[C@@H](CCC(=O)O)C(=O)O)cc1; experiment: as §2
[29] = substrate: Nc1nc(N)c2c(CCc3ccc(C(=O)N[C@@H](CCC(=O)O)C(=O)O)cc3)coc2n1; experiment: as §2
[30] = substrate: Nc1nc(N)c2nc(CNc3ccc(C(=O)N[C@@H](CCC(=O)O)C(=O)O)cc3)cnc2n1; experiment: as §2

Thymidylate synthase (Escherichia coli, UniProt C3SWJ7), sequence (C3SWJ7 whole entry): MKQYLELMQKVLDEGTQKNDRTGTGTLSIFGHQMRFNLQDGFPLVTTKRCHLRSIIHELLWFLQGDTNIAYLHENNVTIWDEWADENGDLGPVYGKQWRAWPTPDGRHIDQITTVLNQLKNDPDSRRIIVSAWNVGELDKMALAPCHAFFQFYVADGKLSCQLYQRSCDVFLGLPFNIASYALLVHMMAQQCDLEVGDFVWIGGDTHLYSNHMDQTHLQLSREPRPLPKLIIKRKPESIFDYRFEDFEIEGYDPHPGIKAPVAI
Dihydrofolate reductase (Lactobacillus casei, UniProt P00381), sequence (P00381 whole entry): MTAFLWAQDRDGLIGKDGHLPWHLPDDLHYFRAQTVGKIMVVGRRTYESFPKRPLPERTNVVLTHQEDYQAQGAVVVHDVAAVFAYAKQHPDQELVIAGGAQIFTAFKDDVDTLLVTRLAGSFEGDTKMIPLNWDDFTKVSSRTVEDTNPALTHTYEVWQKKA
Thymidylate synthase (Homo sapiens, UniProt P04818), sequence (P04818 whole entry): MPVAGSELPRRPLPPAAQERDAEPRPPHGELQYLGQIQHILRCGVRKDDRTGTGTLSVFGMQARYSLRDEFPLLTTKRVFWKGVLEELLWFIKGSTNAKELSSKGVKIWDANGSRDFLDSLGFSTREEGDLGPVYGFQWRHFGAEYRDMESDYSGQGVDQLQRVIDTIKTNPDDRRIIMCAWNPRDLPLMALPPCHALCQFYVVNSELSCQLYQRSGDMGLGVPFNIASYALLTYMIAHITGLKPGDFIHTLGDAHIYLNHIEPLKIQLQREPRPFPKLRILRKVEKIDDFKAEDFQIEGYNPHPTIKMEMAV
Thymidylate synthase (Rattus norvegicus, UniProt P45352), sequence (P45352 whole entry): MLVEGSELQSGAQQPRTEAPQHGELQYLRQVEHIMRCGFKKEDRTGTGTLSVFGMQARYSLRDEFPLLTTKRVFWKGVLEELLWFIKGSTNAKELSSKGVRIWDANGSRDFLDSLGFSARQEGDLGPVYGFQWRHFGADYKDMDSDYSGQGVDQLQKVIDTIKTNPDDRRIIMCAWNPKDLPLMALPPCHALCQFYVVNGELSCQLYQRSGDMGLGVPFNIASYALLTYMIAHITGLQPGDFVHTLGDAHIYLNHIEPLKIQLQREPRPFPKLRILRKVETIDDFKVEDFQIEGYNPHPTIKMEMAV

With `CC(Cc1coc2nc(N)nc(N)c12)c1ccc(C(=O)N[C@@H](CCC(=O)O)C(=O)O)cc1` (some centres undefined) the EC50 [1] was 0.0285 µM, the EC50 [2] was 0.0292 µM and the IC50 [3] was 2.1 µM. For the same molecule, the IC50 [4] was 2.1 µM, the Control [5] was 3.75% and the Control [6] was 105.25%. The Control [7] was 5.75%, the Control [8] was 8% and the EC50 [9] was 0.0175 µM. For the same molecule, the EC50 [10] was 0.43 µM, the EC50 [11] was 0.22 µM and the IC50 [12] was 100 µM. The IC50 [13] was > 360 µM, the IC50 [14] was > 360 µM and the IC50 [15] was > 360 µM. It also gave an EC50 [16] of 0.685 µM and an IC50 [17] of 1.1 µM.

With `C/C(=C\c1coc2nc(N)nc(N)c12)c1ccc(C(=O)N[C@@H](CCC(=O)O)C(=O)O)cc1` the EC50 [1] was > 10 µM, the EC50 [2] was 34 µM and the IC50 [3] was 84 µM. The IC50 [4] was 110 µM, the EC50 [9] was > 10 µM and the IC50 [12] was > 360 µM. The IC50 [13] was > 360 µM, the Ratio [18] was 0.15 and the IC50 [14] was > 360 µM. For the same molecule, the IC50 [15] was > 360 µM, the IC50 [17] was 11 µM and the IC50 [19] was 42 µM.

In the case of `Nc1nc(N)c2c(CNCc3ccc(C(=O)N[C@@H](CCC(=O)O)C(=O)O)cc3)coc2n1`, the IC50 [20] is reported as 10 µM.

`CN(Cc1coc2nc(N)nc(N)c12)c1ccc(C(=O)N[C@@H](CCC(=O)O)C(=O)O)cc1` [FURO[2,3D]PYRIMIDINE ANTIFOLATE] showed an IC50 [3] of 0.22 µM, an IC50 [4] of 19.8 µM and an EC50 [11] of 1.03 µM. For the same molecule, the IC50 [13] was > 200 µM, the IC50 [15] was > 200 µM and the EC50 [16] was 0.807 µM.

`Nc1nc(N)c2nc(CNc3ccc(C(=O)N[C@@H](CCC(=O)O)C(=O)O)cc3)cnc2n1` showed a Ratio [18] of 0.23.

For `C/C(=C/c1coc2nc(N)nc(N)c12)c1ccc(C(=O)N[C@@H](CCC(=O)O)C(=O)O)cc1.C/C(=C\c1coc2nc(N)nc(N)c12)c1ccc(C(=O)N[C@@H](CCC(=O)O)C(=O)O)cc1` (mixture of isomers), the EC50 [1] was 0.7 µM, the EC50 [2] was 1.18 µM and the IC50 [3] was 4.4 µM. For the same molecule, the IC50 [4] was 4.4 µM, the EC50 [9] was 1.4 µM and the EC50 [10] was 17 µM. For the same molecule, the EC50 [11] was 6.4 µM, the IC50 [12] was > 360 µM and the IC50 [13] was > 360 µM. For the same molecule, the Ratio [18] was 0.05, the IC50 [14] was > 360 µM and the IC50 [15] was > 360 µM. It also gave an EC50 [16] of 32 µM, an IC50 [17] of 1.1 µM and an IC50 [19] of 2.2 µM.

For `Nc1nc(N)c2c(CNc3ccc(C(=O)N[C@@H](CCC(=O)O)C(=O)O)cc3)coc2n1`, the IC50 [4] was 0.7 µM, the EC50 [11] was 0.663 µM and the IC50 [15] was > 200 µM. The EC50 [16] was 1.52 µM.

Work on `CN(Cc1cnc2nc(N)nc(N)c2n1)c1ccc(C(=O)N[C@@H](CCC(=O)O)C(=O)O)cc1` [METHOTREXATE] yielded a Control [5] of 11.25%, a Control [21] of 102% and a Control [7] of 5.75%. The Control [8] was 9.25%, the EC50 [9] was 0.0113 µM and the EC50 [10] was 1.6 µM. The EC50 [16] was 0.675 µM.

Work on `Nc1nc(N)c2c(CCc3ccc(C(=O)N[C@@H](CCC(=O)O)C(=O)O)cc3)coc2n1` yielded an EC50 [11] of 0.425 µM and a Ratio [18] of 0.07.

B1: Folylpolyglutamate synthase, mitochondrial (Homo sapiens), Q05932 (protein)
chain: MSRARSHLRAALFLAAASARGITTQVAARRGLSAWPVPQEPSMEYQDAVRMLNTLQTNAGYLEQVKRQRGDPQTQLEAMELYLARSGLQVEDLDRLNIIHVTGTKGKGSTCAFTECILRSYGLKTGFFSSPHLVQVRERIRINGQPISPELFTKYFWRLYHRLEETKDGSCVSMPPYFRFLTLMAFHVFLQEKVDLAVVEVGIGGAYDCTNIIRKPVVCGVSSLGIDHTSLLGDTVEKIAWQKGGIFKQGVPAFTVLQPEGPLAVLRDRAQQISCPLYLCPMLEALEEGGPPLTLGLEGEHQRSNAALALQLAHCWLQRQDRHGAGEPKASRPGLLWQLPLAPVFQPTSHMRLGLRNTEWPGRTQVLRRGPLTWYLDGAHTASSAQACVRWFRQALQGRERPSGGPEVRVLLFNATGDRDPAALLKLLQPCQFDYAVFCPNLTEVSSTGNADQQNFTVTLDQVLLRCLEHQQHWNHLDEEQASPDLWSAPSPEPGGSASLLLAPHPPHTCSASSLVFSCISHALQWISQGRDPIFQPPSPPKGLLTHPVAHSGASILREAAAIHVLVTGSLHLVGGVLKLLEPALSQ
Work on B1 yielded a Km [22] of 10.3 µM, a Km [23] of 5.3 µM and a Km [24] of 1.2 µM. The Km [25] was 4.5 µM, the Vmax [26] was 0.56 and the Vmax [27] was 0.76. For the same molecule, the Vmax [28] was 0.52, the Vmax [29] was 0.065 and the Vmax [30] was 1.
